pIC50: −log10 of the molar value. Converted amounts (≈) assume the structure as drawn. Where two headings read alike, the source gives them in different places.
Key:
[1] = tested on: A-375 (Melanoma); experiment: Cytotoxicity, MTT assay, A-375; assay type: cell-based; conditions: Homo sapiens
Method: (§1) Compounds proposed in the present invention were evaluated for their cytotoxic effect against panel of six cancer cell line viz. HL-60 (Leukemia), PC-3 (Prostate), A-375 (Melanoma), MIAPaCa-2 (pancreatic), MCF-7 (Breast) and Caco-2 (Colon) using MTT assay. In each well of a 96-well plate, 3×10^3 cells were grown in 100 μL of medium. After 24 h, each test molecules were added to achieve a final concentration of 10 to 0.01 μmol/L, respectively. After 48 h of treatment, 20 μL of 2.5 mg/mL MTT (Organics Research, Inc.) solution in phosphate buffer saline was added to each well. After 48 h, supernatant was removed and formazan crystals were dissolved in 200 μL of DMSO. Absorbance was then measured at 570 nm using an absorbance plate reader (Bio-Rad Microplate Reader). Data are expressed as the percentage of viable cells in treated relative to non-treated conditions.

[2] = target: CDK-2/cyclin A (Homo sapiens (Human), UniProt P24941); experiment: Inhibition of CDK-2/cyclin A; assay type: biochemical
[3] = tested on: HL-60 (Leukemia); experiment: Cytotoxicity, MTT assay, HL-60; assay type: cell-based; conditions: Homo sapiens
Method: as §1

[4] = tested on: MCF-7 (Breast); experiment: Cytotoxicity, MTT assay, MCF-7; assay type: cell-based; conditions: Homo sapiens; for pIC50: MCF7
Method: as §1

[5] = target: CDK-9/Cyclin T1 (Homo sapiens (Human), UniProt P50750); experiment: Inhibition of CDK-9/cyclin T1; conditions: IC50 (nM) CDK-9/T1
Method: (50-1000 cpm/pmole) and incubated for 30 mM at room temperature. Assays were stopped by addition of 5 μl of 0.5 M (3%) orthophosphoric acid and then harvested onto P81 Unifilter plates with a wash buffer of 50 mM orthophosphoric acid.

[6] = tested on: PC-3 (Prostate); experiment: Cytotoxicity, MTT assay, PC-3; assay type: cell-based
Method: as §1

[7] = tested on: Caco-2 (Colon); experiment: Cytotoxicity, MTT assay, Caco-2; assay type: cell-based; conditions: Homo sapiens
Method: as §1

[8] = tested on: MIAPaCa-2 (pancreatic); experiment: Cytotoxicity, MTT assay, MIAPaCa-2; assay type: cell-based; conditions: Homo sapiens, MIA PaCa-2, read-out: Cell Growth Inhibition (%)
Method: as §1

[9] = tested on: Ehrlich solid tumor (EAC cells); experiment: In vivo anticancer activity in Ehrlich solid tumor mice model; set-up: species or system Swiss mice
Method: Ehrlich ascites carcinoma (EAC) cells were collected from the peritoneal cavity of the swiss mice harbouring 8-10 days old ascitic tumor. 1×10^7 EAC cells were injected intramuscularly in right thigh of 31 Swiss male mice selected for the experiment on day 0. The next day, animals were randomized and divided into four groups. Three treatment groups contained 7 animals each and one control group contained 10 animals. Treatment was given as follows:
Group I: Compound 33 (50 mg/kg i/p) from day 1-9.
Group II: Compound 33 (70 mg/kg i/p) from day 1-9.
The third treatment group was treated with 5-fluorouracil (22 mg/kg, i.p) from day 1-9 and it served as positive control. The control group was similarly administered normal saline (0.2 ml, i.p.) from day 1-9. On day 9 & 13, tumor bearing thigh of each animal was shaved and longest and shortest diameters of the tumor were measured with the help of vernier caliper. Tumor weight of each animal was calculated using the following formula.
The percent tumor growth inhibition was calculated on day 13 by comparing the average values of treated groups with that of control group. Tumor growth in saline treated control animals was taken to be 100%.

[10] = Thermodynamic equilibrium solubility; assay type: physicochemical; conditions: 25 °C, thermodynamic from solid
Method: The compounds were first dissolved in methanol to prepare stock solutions (100 and 1000 μg/mL). Different concentrations of stock solutions were pipetted into the 96-well plates and the solvent was evaporated to ensure that solid drug was present in the beginning of the experiment. […] The plates were kept overnight for equilibration of drug in medium. Later, the plates were centrifuged at 3000 rpm for 15 min (Jouan centrifuge BR4i). Supernatant (50 μl) was pipetted into UV 96-well plates (Corning® 96 Well Clear Flat Bottom UV-Transparent Microplate) for analyses with plate reader (SpectraMax Plus384) at λmax of 350 nm. The analyses were performed in triplicate for each compound. The solubility curve of concentration (μg/mL) vs absorbance was plotted to find out saturation point and the corresponding concentration was noted (Heikkilä, T. et al. Int. J. Pharm. 2011, 405, 132).

[11] = tested on: CDK1/cyclin B; conditions: Gray, N. et al. Curr. Med. Chem. 1999, 6, 859; cited from earlier work
[12] = 10 μM, read-out: Cell Growth Inhibition (%)
[13] = water, 25±1° C., read-out: Solubility in μg/mL, Water
[14] = phosphate buffer saline (PBS), aqueous buffer, read-out: Solubility in μg/mL, PBS
[15] = simulated gastric fluid (SGF), simulated gastric fluid, read-out: Solubility in μg/mL, SGF
[16] = simulated intestinal fluid (SIF), fassgf or other biorelevant, read-out: Solubility in μg/mL, SIF

CDK-9/Cyclin T1, sequence (P50750 whole entry): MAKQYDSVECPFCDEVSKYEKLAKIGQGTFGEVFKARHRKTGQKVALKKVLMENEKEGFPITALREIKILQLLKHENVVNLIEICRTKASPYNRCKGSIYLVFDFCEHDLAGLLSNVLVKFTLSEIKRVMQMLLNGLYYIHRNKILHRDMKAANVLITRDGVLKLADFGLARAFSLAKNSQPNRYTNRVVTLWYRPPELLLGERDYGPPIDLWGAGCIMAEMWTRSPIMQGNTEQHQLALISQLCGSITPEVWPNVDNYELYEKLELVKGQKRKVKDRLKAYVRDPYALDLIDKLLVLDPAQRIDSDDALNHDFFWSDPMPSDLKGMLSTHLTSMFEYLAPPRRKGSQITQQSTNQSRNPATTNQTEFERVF
CDK-9/Cyclin T1, sequence (O60563 whole entry partner): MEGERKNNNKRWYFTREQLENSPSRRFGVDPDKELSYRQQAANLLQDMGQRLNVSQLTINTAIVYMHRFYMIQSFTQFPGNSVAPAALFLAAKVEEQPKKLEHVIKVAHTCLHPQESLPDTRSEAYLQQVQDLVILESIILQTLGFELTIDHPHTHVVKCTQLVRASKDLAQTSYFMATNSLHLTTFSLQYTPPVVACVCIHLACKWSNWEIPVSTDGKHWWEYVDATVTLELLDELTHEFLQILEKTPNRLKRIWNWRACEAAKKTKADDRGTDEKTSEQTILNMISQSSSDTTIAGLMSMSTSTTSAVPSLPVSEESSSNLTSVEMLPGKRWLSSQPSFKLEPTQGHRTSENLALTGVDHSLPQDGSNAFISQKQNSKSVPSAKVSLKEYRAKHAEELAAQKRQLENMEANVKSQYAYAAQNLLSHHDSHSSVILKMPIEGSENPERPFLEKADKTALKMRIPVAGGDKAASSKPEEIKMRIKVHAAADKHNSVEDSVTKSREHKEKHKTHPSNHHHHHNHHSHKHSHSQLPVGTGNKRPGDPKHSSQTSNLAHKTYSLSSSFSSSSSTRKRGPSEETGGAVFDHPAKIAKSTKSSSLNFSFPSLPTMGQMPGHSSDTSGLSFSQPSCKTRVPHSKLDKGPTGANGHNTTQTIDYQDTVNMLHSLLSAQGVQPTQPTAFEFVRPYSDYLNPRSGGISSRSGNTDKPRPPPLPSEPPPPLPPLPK

SMILES	IC50 [2] [nM]	pIC50 [3]	IC50 [5] [nM]	pIC50 [1]	pIC50 [4]	pIC50 [6]	pIC50 [7]	solubility [10, 13] [µg/mL]	solubility [10, 14] [µg/mL]	solubility [10, 15] [µg/mL]	solubility [10, 16] [µg/mL]	further results
Cc1cc(=O)c2c(O)cc(O)c(C3CCN(C)CC3O)c2o1 (centres unmarked) [Compound 1, 5,7-dihydroxy-8-(3-hydroxy-1-methylpiperidin-4-yl)-2-methyl-4H-chromen-4-one, reference compound]	> 10000	5.22	550									inhibition at 10 µM [1, 12]: 41.2%; inhibition at 10 µM [3, 12]: 83.3%; inhibition at 10 µM ([4]; MCF7, 10 μM, read-out: Cell Growth Inhibition (%)): 15.4%; inhibition at 10 µM [6, 12]: 32.9%; inhibition at 10 µM [7, 12]: 11.9%; inhibition at 10 µM [8]: 1.46%
CN1CCC(c2c(O)cc(O)c3c(=O)cc(/C=C/c4c(Cl)cccc4Cl)oc23)C(O)C1 (centres unmarked) [Compound 33, 2-(2,6-dichlorostyryl)-5,7-dihydroxy-8-(3-hydroxy-1-methylpiperidin-4-yl)-4H-chromen-4-one]	16	6.05	2	5.10	5.40	4.39	5.15	5 (≈ 10.8 µM)	5 (≈ 10.8 µM)	40 (≈ 86.5 µM)	20 (≈ 43.3 µM)	Day 13 % Tumor Growth Inhibition ([9]; 50 mg/kg i/p day 1-9): 33.11%; Day 13 Av. Tumor weights ([9]; 50 mg/kg i/p day 1-9): 989.12 mg; Mortality ([9]; 50 mg/kg i/p day 1-9): 0/7; Day 13 % Tumor Growth Inhibition ([9]; 70 mg/kg i/p day 1-9): 37.65%; Day 13 Av. Tumor weights ([9]; 70 mg/kg i/p day 1-9): 922.0 mg; Mortality ([9]; 70 mg/kg i/p day 1-9): 0/7
CN1CCC(c2c(O)cc(O)c3c(=O)cc(/C=C/c4c(F)c(F)c(F)c(F)c4F)oc23)C(O)C1 (centres unmarked) [Compound 34, 2-(2,3,4,5,6-pentafluorostyryl)-5,7-dihydroxy-8-(3-hydroxy-1-methylpiperidin-4-yl)-4H-chromen-4-one]	608	5.52	12	5.10	5.40	4.52	5.15	5 (≈ 10.3 µM)	10 (≈ 20.7 µM)	80 (≈ 165 µM)	20 (≈ 41.4 µM)	
CN(C)c1ncnc2nc[nH]c12 [dimethylaminopurine]												pIC50 [11]: 3.92

Source: patent publication US9932327B2, “Rohitukine analogs as cyclin-dependent kinase inhibitors and a process for the preparation thereof” (COUNCIL OF SCIENTIFIC AND INDUSTRIAL RESEARCH, priority 2013, dated 2018)
